From the NIST ThermoML archive (doi:10.1016/j.fluid.2004.11.020)

Test: Solid-liquid equilibrium temperature
Conditions: closed cylinder with variable piston

CCCCCCCCCCCCCCCC [hexadecane]
Crystal
Conditions | Solid-liquid equilibrium temperature [K]
9210 kPa | 293.15
50650 kPa | 303.15
95560 kPa | 313.15
143920 kPa | 323.15
195740 kPa | 333.15
251030 kPa | 343.15

CCCCCCCCCCCCCCCCCC [octadecane]
Crystal
Conditions | Solid-liquid equilibrium temperature [K]
8860 kPa | 303.15
49600 kPa | 313.15
94900 kPa | 323.15
144780 kPa | 333.15
199220 kPa | 343.15
258230 kPa | 353.15

CCCCCCCCCCCCC [tridecane]
Crystal 1
Conditions | Solid-liquid equilibrium temperature [K]
100 kPa | 268.21
133010 kPa | 293.15
197120 kPa | 303.15
265400 kPa | 313.15
337830 kPa | 323.15
414420 kPa | 333.15
495170 kPa | 343.15
